According to a melting point compilation (Tetko et al.; mined from patent text by program, amines drawn as free bases though some values may be those of a salt):

Compound | melting point
OC12CC3CC(C1)CC(NC(c1ccccc1)(c1ccccc1)c1ccccc1)(C3)C2 | 184 to 186 °C
O=C(O)COc1ccc(C(O)c2cccs2)c(Cl)c1Cl (stereo unspecified) | 163 °C
O=CNC1=NN(c2ccccc2)CC1 | 140 to 141 °C
OCc1cc(N2CCOCC2)ncn1 | 138 °C
CC1(C)OCCC(NC(=O)c2cnccc2C(F)(F)F)O1 (stereo unspecified) | 155 to 156 °C
c1cnc2ncn(CCCCc3nnnn3C3CCCCC3)c2c1 | 143 to 146 °C
COc1cc(OC)cc(-c2nc[nH]c2-c2ccc(OC)c(N)c2F)c1 | 118 to 120 °C
N=C(N)N1CCc2[nH]cnc2C1 | 310 °C
Cn1ccnc1CC1COc2ccccc2O1 (stereo unspecified) | 158 to 160 °C
N#Cc1cc(/C=C/C(c2cc(Cl)c(Cl)c(Cl)c2)C(F)(F)F)ccc1-n1cnc(N(C(=O)C2CC2)C(=O)C2CC2)n1 (stereo unspecified) | 104 to 107 °C
CNC=Nc1ccc(-c2c[nH]cn2)cc1 | 189 to 190 °C
CC(=O)c1cccc(NC(=O)NC2N=C(c3ccccc3F)c3cccc(C)c3N(CC(=O)N3CC4CCC(CC4)C3)C2=O)c1 (stereo unspecified) | > 250 °C
COc1cccc(CCCC(=O)O)c1OC | 58 to 59 °C
CC(C)NC[C@H](O)COc1ccc(OCc2ccccc2)cc1 | 93 to 95 °C
Cc1ccc2c(=O)n3ccsc3nc2c1 | 174 to 178 °C
CC(C)C[C@H](NC(=O)OCC1CCCCCC1)C(=O)N[C@@H](Cc1ccccc1)C(=O)CSCc1ccco1 | 77 to 79 °C
CCOC(=O)c1cc2cc(C(F)(F)F)cnc2n1Cc1ccccc1 | 72 to 73 °C
CN1CCN(CCO)Cc2ccc(Nc3ncc(Cl)c(N[C@@H]4CCCC[C@H]4NS(C)(=O)=O)n3)cc21 | 181 to 190 °C
COc1cc(OC)cc(C(C)CCCc2ccncc2)c1 (stereo unspecified) | 131 to 133 °C
CC(C(=O)OCC(c1cccc(C(F)(F)F)c1)N1CCNCC1)c1ccc2c(c1)CC(C(C)C)C2 (stereo unspecified) | 56 to 58 °C
CC12CC(O)CCC1CCC1C2CCC2(C)C(O)C(N3CCCCC3)CC12 (stereo unspecified) | 215 to 219 °C

Compound | melting point
CCOC(=O)c1c(CN(CC)CC)nc2sc3c(c2c1-c1ccc(OC)c(OC)c1)CCCN3C(=O)OCc1ccccc1 | 138 to 139 °C
CCOC(=O)C1=CC(OCC)(C(C)C)N(c2ccc(Cl)cc2Cl)N1 (stereo unspecified) | 105 to 110 °C
CCc1cccc(Nc2ncnc3cc(OCCOC)c(OCCOC)cc23)c1 | 72 to 74 °C
CCCCOc1ccc(OCC2(O)CN3CCC2CC3)cc1 (stereo unspecified) | 110 to 112 °C
CCCn1nc(Cc2ccc(-c3ccccc3-c3nnn(C(c4ccccc4)(c4ccccc4)c4ccccc4)n3)cc2)c(C(=O)OCC)c1C(C)C | 158 to 159 °C
O=C(CNC(=O)c1ccc(S(=O)(=O)F)cc1)Nc1cccc(-c2cccc3c2/C(=C/c2ccc[nH]2)C(=O)N3)c1 | 248 to 250 °C
O=C(O)COc1nnc(-c2ccc3c(c2)CCO3)o1 | 151 to 153 °C
COc1ccc(C(=O)N2CC3CC2C(=O)O3)cc1OC (stereo unspecified) | 132 °C
COC(=O)c1c(OCc2ccccc2)ccc2c1CC[C@@H](N)[C@@H]2O (relative stereo) | 124 to 126 °C
CC1Oc2ccc(CN3CCN(c4nc5c(c(=O)n(C)c(=O)n5C)n4C)CC3)cc2NC1=O (stereo unspecified) | 130 to 138 °C
CCOC(=O)C1=C(N)N=C(OCC)C(C(=O)OCC)C1c1cc([N+](=O)[O-])ccc1Cl (stereo unspecified) | 136 to 137 °C
CC1CCc2c(N3CCCCC3)c(F)cc3c(=O)c(C(=O)O)cn1c23 (stereo unspecified) | 258 to 261 °C
CN1CCOc2cc3c(cc21)OCC31C(=O)N(CC2CCCO2)c2ccccc21 (stereo unspecified) | 138 to 140 °C
C#CCn1cc(CO)sc1=O | 97 to 98 °C
C=CCCCCCCOc1ccc(CCC(N)(CO)CO)cc1 | 95 to 98 °C
O=C(Cc1ccccc1Cl)N1CCCc2ncc3ccccc3c21 | 176 to 178 °C
CC1CCN(CCCCC(=O)c2ccc3c(c2)Cc2cc(C(=O)CCCCN4CCC(C)CC4)ccc2-3)CC1 | 143 to 144 °C
O=C1NCN(c2ccccc2)C12CCN(CCCn1c(=O)[nH]c3cc(Cl)ccc31)CC2 | 234 °C
Cc1cc(-c2oncc2CCCO)ccc1Cl | 50 to 51 °C
CCCCCCCCCCCC(O)CC(=O)C(CCCCCC)C(=O)OC (stereo unspecified) | 38 to 39 °C
Nc1nc(Nc2ccccc2)sc1C(=O)c1cccnc1 | 227 to 228 °C

Compound | melting point
COc1cccc2c1CCC(C#N)C2=O (stereo unspecified) | 120 to 122 °C
Cc1cc2c(s1)S(=O)(=O)N(C(C)(C)C)C2=O | 80 to 81 °C
CC1CN(C(=O)CCl)c2ccccc21 (stereo unspecified) | 78 to 79 °C
CS(=O)(=O)On1nnc2ccccc2c1=O | 132 to 134 °C
FC(F)(F)Sc1cc(-c2ccccc2)c(-c2ccccc2)[nH]1 | 58 to 59 °C
O=C1c2c(O)ccc(O)c2C(=O)c2c(NCCNCCO)ccc(NCCNCCO)c21 | 175 to 177 °C
CCOC(=O)c1ccc(CCCC2NC(=O)CS2)c(Cl)c1 (stereo unspecified) | 81.5 to 82.5 °C
CC(C)(C)OC(=O)Nc1ccn2nc(N3CCCC3)nc2c1 | 216 to 219 °C
CCN1CCO[C@]2(C)c3cccc4[nH]cc(c34)C[C@@H]12 (relative stereo) | 129 to 130 °C
C[C@@H](CO)COc1ccc(-c2ccc(Cl)nn2)cc1 | 134 to 138 °C
COc1ccccc1-c1nc(N)ncc1-c1ccc(=O)[nH]n1 | 273 °C
CN1CCC(N2C(=O)CN=C(c3ccccc3)c3ccccc32)CC1 | 158 to 159 °C
Cc1nc(NC(=O)c2cnn3c(C(F)(F)F)cc(-c4ccc(C(F)(F)F)c(Cl)c4)nc23)sc1S(=O)(=O)NC(C)(C)CO | 274 °C
CSc1ccc(C[C@H](CO)NC(=O)OCc2ccccc2)cc1 | 115 to 117 °C
CN(CCCNc1ccc(C#N)cc1)C1C2CCC1CN(Cc1ccccc1)C2 (stereo unspecified) | 91 to 93 °C
Cc1cccc(-c2cccc(CBr)n2)n1 | 88 °C
CC1CC(=O)Nc2ncc3c(c21)CCCN3 (stereo unspecified) | 309 to 311 °C
Clc1cc(Nc2nnc(-c3ccc4nonc4c3)s2)ccc1Br | 326 to 327 °C
C=C(C)C(=O)OCCCCCCCCCCCOC(=O)c1cc(OC(=O)c2ccc(/C=C/C(=O)OC)cc2)ccc1O | 51 °C
CC(C)CC(=O)c1cc(-c2ccccc2)no1 | 62 to 64 °C
CCCCCCCCCCCCCCCCS(=O)(=O)NCCCCCCCN(C)C | 56 to 57.5 °C

The next lines start with the values.

melting point | Compound
218 to 220 °C | C=Cc1cncc(-c2cc(NC(=O)Cc3ccc4ccccc4c3)n[nH]2)c1
180 to 181 °C | CCS(=O)(=O)c1ccc(-c2coc3ccc(-c4nnc(C)o4)cc23)cc1
177 to 179 °C | O=[N+]([O-])c1cccc(C=[N+]([O-])c2cccc(CO)c2)c1
135 to 136 °C | COC(=O)C1CCN2C(=O)C(=O)c3cccc1c32 (stereo unspecified)
151 °C | Cn1cncc1C(CC#N)(c1ccc(Cl)cc1)c1ccc2c(c1)c(-c1cccc(Cl)c1)cc(=O)n2C (stereo unspecified)
85 to 86 °C | CN(C)c1ccc(S(=O)c2ccccc2)cc1N (stereo unspecified)
> 230 °C | CSc1nn2c(N)cc(C)nc2c1S(=O)(=O)c1ccc(I)cc1
164 to 165 °C | Cc1ccc(C(=O)OCCN(C)C)cc1-n1c(C)cc(OCc2ccccc2CNC(=O)Nc2cc(C(C)(C)C)nn2-c2cccc(OCCO)c2)c(Cl)c1=O
112 to 113 °C | COc1cccc(-c2nc(-c3ccccc3)c3ncc(-c4csc5ccccc45)cc3n2)c1
244 to 246 °C | Cc1nc2c(c3c1[nH]c1ccc(Cl)cc13)C(=O)CC(C)(C)C2
111 to 113 °C | CCOC(=O)c1ccc(NS(C)(=O)=O)c(Oc2ccc(F)cc2F)c1
77 to 79 °C | CCCCOCCOc1ccc(-c2ccc3c(c2)C=C(C(=O)Nc2ccc(CSc4nncs4)cc2)CCN3CC(C)C)cc1
150 to 151 °C | Cc1ccccc1-c1ccc(C(=O)Nc2ccc3cc(CN4CCCC4)cnc3c2C)cc1
192 to 193 °C | CN(C)C(=O)c1cn(Cc2ccccc2)c(=O)c2c1c1cc(F)ccc1n2C
186 to 188 °C | CC12CCC(C1)C1(C)Oc3ccc(C(=O)COc4ccc(C(=O)O)c(O)c4)cc3C21C (stereo unspecified)
148 to 150 °C | CC1=C(C(=O)OCCN(C)Cc2ccccc2)C(c2ccccc2C(F)(F)F)c2c(ccnc2OCC(C)C)N1 (stereo unspecified)
84.5 to 86 °C | COc1ccc2c(c1)Oc1c(ccc(OC)c1C=O)C2(C)C

melting point | Compound
154 to 155 °C | COc1cccc(NC(=O)c2ccc(C(=O)N3CCCc4ccccc43)cc2)c1
140 to 144 °C | COC(=O)CCCc1cc2nc(Cl)ccc2n1S(=O)(=O)c1cccc(-c2ccnc(C)n2)c1
207 to 208 °C | CCOP(=O)(Cc1ccc(NC(=O)/C=C/c2cnn(Cc3ccccc3)c2-c2ccc(F)cc2)cc1)OCC
174 to 175 °C | O=C1N(Cc2ccc(F)cc2Cl)c2ccccc2C12COc1cc3c(cc12)OCO3 (stereo unspecified)
148 to 150 °C | CS(=O)(=O)c1ccc(C2=C(c3ccccc3)C(=NOCc3ccccc3)C2)cc1
155 to 156 °C | COc1ccc(-c2cc(=O)n(Cc3ccc(F)c(F)c3)nc2-c2ccc(OC)cc2)cc1
56 to 58 °C | OC(c1ccccc1)c1cc2cc(Br)ccc2o1 (stereo unspecified)
153 °C | O=C(/C=C/c1ccn(S(=O)(=O)c2ccc3ccccc3c2)c1)NO
164 °C | Cc1noc(NS(=O)(=O)c2ccc(-c3cc4ccccc4s3)s2)c1Br
184 to 186 °C | CC(=O)Nc1cccc(OCCCN2CCC(c3noc4cc(F)ccc34)CC2)c1
180 to 182 °C | O=C(O)c1cc2ccccc2cc1NC(=O)C(CS)Cc1ccccc1 (stereo unspecified)
170 to 172 °C | COC(=O)C1=Cc2cc(-c3ccc(C(C)(C)C)cc3)ccc2S(=O)(=O)CC1
104 to 106 °C | CN(C(=O)c1cccc(S(=O)(=O)N(C)c2ccc(S(C)=O)cc2)c1)c1ccc(Cl)cc1F (stereo unspecified)
83 to 85 °C | CC(C)(C)C(O)(Cn1cncn1)C(=O)C=Cc1ccc(Cl)cc1 (stereo unspecified)
162 to 164 °C | O=[N+]([O-])C=Cc1cc(OCc2ccccc2)c(OCc2ccccc2)cc1[N+](=O)[O-]
254 °C | Cc1cc(-c2ccc(Cl)c(Cl)c2)nc(-n2cnc(-c3ccc(S(N)(=O)=O)s3)c2)n1
